Assay results: BigSolDB 2.1

COCC(=O)Nc1c(I)c(C(=O)NCC(O)CO)c(I)c(C(=O)N(C)CC(O)CO)c1I (stereo not given)
solubility (mole fraction) (in DMF, 273.15 K): 0.00368
solubility (mole fraction) (in DMF, 278.15 K): 0.0038
solubility (mole fraction) (in DMF, 283.15 K): 0.00394
solubility (mole fraction) (in DMF, 288.15 K): 0.00409
solubility (mole fraction) (in DMF, 293.15 K): 0.00427
solubility (mole fraction) (in DMF, 298.15 K): 0.00446
solubility (mole fraction) (in DMF, 303.15 K): 0.00467
solubility (mole fraction) (in DMF, 308.15 K): 0.0049
solubility (mole fraction) (in DMF, 313.15 K): 0.00517
solubility (mole fraction) (in DMF, 318.15 K): 0.00544
solubility (mole fraction) (in acetone, 273.15 K): 3.54e-05
solubility (mole fraction) (in acetone, 278.15 K): 4.29e-05
solubility (mole fraction) (in acetone, 283.15 K): 5.29e-05
solubility (mole fraction) (in acetone, 288.15 K): 6.52e-05
solubility (mole fraction) (in acetone, 293.15 K): 7.88e-05
solubility (mole fraction) (in acetone, 298.15 K): 9.34e-05
solubility (mole fraction) (in acetone, 303.15 K): 0.00011
solubility (mole fraction) (in acetone, 308.15 K): 0.000128
solubility (mole fraction) (in acetone, 313.15 K): 0.000149
solubility (mole fraction) (in acetone, 318.15 K): 0.000171
solubility (mole fraction) (in ethanol, 273.15 K): 0.000152
solubility (mole fraction) (in ethanol, 278.15 K): 0.000178
solubility (mole fraction) (in ethanol, 283.15 K): 0.000215
solubility (mole fraction) (in ethanol, 288.15 K): 0.000254
solubility (mole fraction) (in ethanol, 293.15 K): 0.000296
solubility (mole fraction) (in ethanol, 298.15 K): 0.000339
solubility (mole fraction) (in ethanol, 303.15 K): 0.000384
solubility (mole fraction) (in ethanol, 308.15 K): 0.000437
solubility (mole fraction) (in ethanol, 313.15 K): 0.000495
solubility (mole fraction) (in ethanol, 318.15 K): 0.000558
solubility (mole fraction) (in ethyl acetate, 273.15 K): 1.36e-05
solubility (mole fraction) (in ethyl acetate, 278.15 K): 2.01e-05
solubility (mole fraction) (in ethyl acetate, 283.15 K): 2.74e-05
solubility (mole fraction) (in ethyl acetate, 288.15 K): 3.57e-05
solubility (mole fraction) (in ethyl acetate, 293.15 K): 4.52e-05
solubility (mole fraction) (in ethyl acetate, 298.15 K): 5.65e-05
solubility (mole fraction) (in ethyl acetate, 303.15 K): 6.84e-05
solubility (mole fraction) (in ethyl acetate, 308.15 K): 8.46e-05
solubility (mole fraction) (in ethyl acetate, 313.15 K): 0.000101
solubility (mole fraction) (in ethyl acetate, 318.15 K): 0.000127
solubility (mole fraction) (in isopropanol, 273.15 K): 5.1e-05
solubility (mole fraction) (in isopropanol, 278.15 K): 6.23e-05
solubility (mole fraction) (in isopropanol, 283.15 K): 7.52e-05
solubility (mole fraction) (in isopropanol, 288.15 K): 9.01e-05
solubility (mole fraction) (in isopropanol, 293.15 K): 0.000108
solubility (mole fraction) (in isopropanol, 298.15 K): 0.000128
solubility (mole fraction) (in isopropanol, 303.15 K): 0.00015
solubility (mole fraction) (in isopropanol, 308.15 K): 0.000177
solubility (mole fraction) (in isopropanol, 313.15 K): 0.000203
solubility (mole fraction) (in isopropanol, 318.15 K): 0.000233
solubility (mole fraction) (in methanol, 273.15 K): 0.000236
solubility (mole fraction) (in methanol, 278.15 K): 0.000282
solubility (mole fraction) (in methanol, 283.15 K): 0.000349
solubility (mole fraction) (in methanol, 288.15 K): 0.000419
solubility (mole fraction) (in methanol, 293.15 K): 0.000496
solubility (mole fraction) (in methanol, 298.15 K): 0.000576
solubility (mole fraction) (in methanol, 303.15 K): 0.000666
solubility (mole fraction) (in methanol, 308.15 K): 0.00077
solubility (mole fraction) (in methanol, 313.15 K): 0.00088
solubility (mole fraction) (in methanol, 318.15 K): 0.000997
solubility (mole fraction) (in toluene, 273.15 K): 9.9e-06
solubility (mole fraction) (in toluene, 278.15 K): 1.08e-05
solubility (mole fraction) (in toluene, 283.15 K): 1.19e-05
solubility (mole fraction) (in toluene, 288.15 K): 1.31e-05
solubility (mole fraction) (in toluene, 293.15 K): 1.43e-05
solubility (mole fraction) (in toluene, 298.15 K): 1.56e-05
solubility (mole fraction) (in toluene, 303.15 K): 1.69e-05
solubility (mole fraction) (in toluene, 308.15 K): 1.83e-05
solubility (mole fraction) (in toluene, 313.15 K): 1.97e-05
solubility (mole fraction) (in toluene, 318.15 K): 2.12e-05
